The test system of assay [1] is massive, pedunculated keloids. The following applies: cited from earlier work.
In a further assay the target is T1, Bovine LOX (Bos taurus, UniProt P33072).
T1 sequence (P33072 170-418): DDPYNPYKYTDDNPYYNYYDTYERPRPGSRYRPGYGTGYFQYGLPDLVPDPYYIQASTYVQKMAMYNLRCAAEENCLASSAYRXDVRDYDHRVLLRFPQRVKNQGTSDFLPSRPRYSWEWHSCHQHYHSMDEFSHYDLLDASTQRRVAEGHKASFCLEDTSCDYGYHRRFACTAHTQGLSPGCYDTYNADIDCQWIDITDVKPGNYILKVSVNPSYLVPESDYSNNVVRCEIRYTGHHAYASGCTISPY
Kind of assay: LOX inhibition, hydrogen peroxide Amplex Red oxidation assay. In kind it is biochemical. The note with it: 2 h incubation with enzyme at 37 °C. How it is done: (§1) LOX and LOXL protein family members can be acquired as recombinant active proteins from commercial sources, or extracted from animal tissues like bovine aorta, tendons, pig skin; or prepared from cell cultures. The inhibitory effects of the compounds of the present invention were tested against the given LOX or LOXL preparation using a method based on the detection of hydrogen peroxide with an Amplex Red oxidation assay [Zhou et al, 1997]. The assay was developed using either 384 or 96 well format. Briefly, in a standard black, clear bottom 384 well plate assay 25 µL of a dilution of any of the isoenzymes and orthologues in 1.2 M urea, 50 mM sodium borate buffer (pH 8.2) were added into each well in the presence of […] and 0.5 mM pargyline (to inhibit SSAO and MAO-B and MAO-A, respectively; not necessary if the enzyme is from a recombinant or purified form). […] of a reaction mixture containing twice the KM concentration of putrescine (Sigma Aldrich, e.g. 20 mM for LOX and LOXL1 or 10 mM for LOXL2 and 4 mM for LOXL3 and LOXL4), 120 µM Amplex Red (Thermo Fisher Scientific) and 1.5 U/mL horseradish peroxidase (Sigma Aldrich) prepared in 1.2 M urea, 50 mM sodium borate buffer (pH 8.2) were then added to the corresponding wells. The above volumes were doubled in the case of 96 wells plate. The fluorescence (RFU) was read every 2.5 min for 30 min at 37 °C, excitation 544 nm and emission 590 (Optima; BMG labtech). The slope/min of the kinetics for each well was calculated using MARS data analysis software (BMG labtech) and this value was used to deduce the IC50 value (Dotmatics). The ability of the inventive compounds to inhibit the amine oxidase activity of LOX and other family members is shown in Table 5.

For a further assay, the target named is T2, LOXL2 (Homo sapiens, UniProt Q9Y4K0).
T2 sequence (Q9Y4K0 26-774): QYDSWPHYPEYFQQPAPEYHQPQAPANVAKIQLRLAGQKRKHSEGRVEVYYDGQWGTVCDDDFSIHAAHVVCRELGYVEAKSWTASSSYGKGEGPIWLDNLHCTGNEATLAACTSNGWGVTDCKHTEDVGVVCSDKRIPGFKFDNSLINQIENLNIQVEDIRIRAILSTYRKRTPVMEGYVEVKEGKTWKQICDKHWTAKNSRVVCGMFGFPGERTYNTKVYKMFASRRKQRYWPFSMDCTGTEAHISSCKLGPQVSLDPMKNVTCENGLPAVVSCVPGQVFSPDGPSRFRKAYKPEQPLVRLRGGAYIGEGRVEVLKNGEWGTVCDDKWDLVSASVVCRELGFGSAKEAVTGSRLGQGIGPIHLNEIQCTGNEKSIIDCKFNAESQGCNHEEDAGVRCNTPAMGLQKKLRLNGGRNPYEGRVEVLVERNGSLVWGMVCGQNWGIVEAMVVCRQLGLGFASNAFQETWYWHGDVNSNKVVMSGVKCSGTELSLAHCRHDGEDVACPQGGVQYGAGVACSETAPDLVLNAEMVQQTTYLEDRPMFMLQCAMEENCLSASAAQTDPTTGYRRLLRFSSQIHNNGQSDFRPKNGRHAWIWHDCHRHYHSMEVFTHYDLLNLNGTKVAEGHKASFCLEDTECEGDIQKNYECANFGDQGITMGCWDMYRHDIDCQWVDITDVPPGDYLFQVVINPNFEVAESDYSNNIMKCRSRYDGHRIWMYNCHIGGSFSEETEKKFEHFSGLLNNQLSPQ
As to the kind of experiment: LOXL2 inhibition, Amplex Red oxidation assay. The following applies: 2 h incubation with enzyme at 37 °C; read-out: Human LOXL2 Activity IC50. Format: biochemical. How it is done:
as §1

For assay [2], the system named is breast cancer model (MMTV-PyMT). The note with it: cited from earlier work.

Like-named read-outs stand apart in the source and are kept apart here.

By IC50 is commonly meant the concentration at which inhibition is half-maximal.

Turning to `CC(C)(S)[C@@H](N)C(=O)O` [penicillamine], in assay [1] (BAPN or penicillamine, and colchicine, following excision of keloid and grafting), the “Effect on surface scarring” value is recorded as “measurable beneficial effect on surface scarring”. Take `Cc1ccc(S(=O)(=O)C/C(=C/F)CN)cc1C#N` [Compound 29, (E)-5-((2-(aminomethyl)-3-fluoroallyl)sulfonyl)-2-methylbenzonitrile]: the half-maximal inhibitory concentration (IC50) against Bovine LOX and at LOXL2 was below 2000 nM throughout. For the compound `COc1cc2c(c(OC)c1OC)-c1ccc(OC)c(=O)cc1[C@@H](NC(C)=O)CC2` [colchicine], the “Effect on surface scarring” value in assay [1] (human, in vivo) was “measurable beneficial effect on surface scarring”.

For `CC(C)c1cccc(S(=O)(=O)C/C(=C/F)CN)c1` [Compound 11, (E)-3-fluoro-2-(((3-isopropylphenyl)sulfonyl)methyl)prop-2-en-1-amine], the IC50 against Bovine LOX and at LOXL2 was below 2000 nM in each case.

For `CS(=O)(=O)c1cccc(Oc2ccccc2S(=O)(=O)C/C(=C/F)CN)c1` [Compound 35, (E)-3-fluoro-2-(((2-(3-(methylsulfonyl)phenoxy)phenyl)sulfonyl)methyl)prop-2-en-1-amine], the values for the IC50 against Bovine LOX and on LOXL2 were below 5000 nM and below 2000 nM, respectively. As to `NC/C(=C\F)CS(=O)(=O)c1cccc2c1OCCO2` [Compound 33, (E)-2-(((2,3-dihydrobenzo[b][1,4]dioxin-5-yl)sulfonyl)methyl)-3-fluoroprop-2-en-1-amine], the IC50 at Bovine LOX and at LOXL2 was below 10000 nM in each case.

Consider `CS(=O)(=O)c1cc(-c2ccccc2)cc(S(=O)(=O)c2ccc(CN)s2)c1` [CCT365623], for which the Metastasis and survival entry in assay [2] was “reduce metastasis and increase survival”. On to `CS(=O)(=O)c1cccc(S(=O)(=O)C/C(=C/F)CN)c1` [Compound 23, (E)-3-fluoro-2-(((3-(methylsulfonyl)phenyl)sulfonyl)methyl)prop-2-en-1-amine], for which the IC50 on Bovine LOX and on LOXL2 was below 2000 nM throughout. For `NC/C(=C\F)CS(=O)(=O)c1cccc(Cl)c1` [Compound 19, (E)-2-(((3-chlorophenyl)sulfonyl)methyl)-3-fluoroprop-2-en-1-amine], the half-maximal inhibitory concentration (IC50) on Bovine LOX and on LOXL2 was below 2000 nM throughout.

Turning to `Cc1ccc(S(=O)(=O)C/C(=C/F)CN)cc1Cl` [Compound 8, (E)-2-(((3-chloro-4-methylphenyl)sulfonyl)methyl)-3-fluoroprop-2-en-1-amine], the IC50 on Bovine LOX and on LOXL2 was below 2000 nM each time.
